# Experiments:
# ragweed = test: Test C preemergence; assay type: in vivo, Ambrosia elation
# In short: (§1)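 Herbicidal effect is expressed as percent visual control (0–100) judged against untreated plants 13 to 15 days after treatment in the greenhouse. Preemergence pots contained seeds in a soil–sand blend; postemergence plants, 2–18 cm tall, grew in peat-based planting medium.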
# corn = test: Test C postemergence; assay type: in vivo, Zea mays; details: for Plant response rating (scale of 0 to 100 where 0 is no effect and 100 is complete control), Corn: Postemergence, 31 g ai/ha, visually evaluated after 13 to 15 days; for Corn plant response rating / Plant response rating, Corn: postemergence; for Corn plant response rating: 62 g ai/ha, scale 0 to 100
# In short: as §1
# oilseed rape = test: Test C preemergence; assay type: in vivo, Brassica napus
# In short: as §1
# lambsquarters = test: Test C postemergence; assay type: in vivo, Chenopodium album; details: for Plant response rating (scale of 0 to 100 where 0 is no effect and 100 is complete control), Lambsquarters: Postemergence, 31 g ai/ha, visually evaluated after 13 to 15 days; for Lambsquarters plant response rating / Plant response rating, Lambsquarters: postemergence; for Lambsquarters plant response rating: 62 g ai/ha, scale 0 to 100
# In short: as §1
# foxtail, giant = test: Test C preemergence; assay type: in vivo, Setaria faberii
# In short: as §1
# wheat = test: Test C preemergence; assay type: in vivo, Triticum aestivum
# In short: as §1
# waterhemp = test: Test C postemergence; assay type: in vivo, Amaranthus rudis; details: postemergence; for Plant response rating, Waterhemp: 250 g ai/ha, scale 0 to 100 (0 no effect, 100 complete control); for Waterhemp plant response rating: scale 0 to 100
# In short: as §1
# blackgrass = test: Test C preemergence; assay type: in vivo, Alopecurus myosuroides; details: preemergence; for Plant response rating, Blackgrass: 125 g ai/ha, scale 0 to 100, 0 = no effect, 100 = complete control
# In short: as §1
# pigweed [1] = test: Test A postemergence; assay type: in vivo, Amaranthus retroflexus; details: Postemergence
# In short: (§2)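 Greenhouse test in loam soil/sand blend; compounds formulated in non-phytotoxic solvent with surfactant, applied as preemergence directed soil spray or postemergence to plants 2–10 cm tall at one- to two-leaf stage. Injury rated visually versus untreated controls after approximately 10 days on a 0 (no effect) to 100 (complete control) scale.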
# johnsongrass [2] = test: Test C preemergence; assay type: in vivo, Sorghum halepense
# In short: as §1
# johnsongrass [3] = test: Test C postemergence; assay type: in vivo, Sorghum halepense; details: for Plant response rating (scale of 0 to 100 where 0 is no effect and 100 is complete control), Johnsongrass: Postemergence, 31 g ai/ha, visually evaluated after 13 to 15 days; for Johnsongrass plant response rating / Plant response rating, Johnsongrass: postemergence; for Johnsongrass plant response rating: 62 g ai/ha, scale 0 to 100
# In short: as §1
# velvetleaf [4] = test: Test A preemergence; assay type: in vivo, Abutilon theophrasti; details: preemergence; for Velvetleaf plant response rating (0 to 100 scale): 125 g ai/ha, visual injury approx. 10 days after treatment
# In short: as §2
# soybean = test: Test C preemergence; assay type: in vivo, Glycine max
# In short: as §1
# barnyardgrass = test: Test A preemergence; assay type: in vivo, Echinochloa crus-galli; details: preemergence; for Barnyardgrass plant response rating (0 to 100 scale, 0 is no effect, 100 is complete control): 125 g ai/ha, visual injury approx. 10 days after treatment; for Barnyardgrass plant response rating: 500 g ai/ha, visual injury after approx. 10 days, 0 to 100 scale (0 no effect, 100 complete control)
# In short: as §2
# pigweed [5] = test: Test A preemergence; assay type: in vivo, Amaranthus retroflexus; details: preemergence; for Pigweed plant response rating (0 to 100 scale): 125 g ai/ha, visual injury approx. 10 days after treatment
# In short: as §2
# velvetleaf [6] = test: Test A postemergence; assay type: in vivo, Abutilon theophrasti; details: Postemergence
# In short: as §2
# [7] = Preemergence, rate head not shown (block before 16 g ai/ha), scale 0 to 100
# [8] = preemergence, 62 g ai/ha, scale 0 to 100 (0 no effect, 100 complete control), 13 to 15 days
# [9] = preemergence, 125 g ai/ha, 13 to 15 days, scale 0 to 100, 0 = no effect, 100 = complete control
# [10] = preemergence, 250 g ai/ha, scale 0 to 100, 0 is no effect, 100 is complete control
# [11] = 250 g ai/ha, scale 0 to 100 (0 no effect, 100 complete control)
# [12] = 125 g ai/ha, scale 0 to 100, 0 no effect, 100 complete control
# [13] = 31 g ai/ha, visual rating, scale 0 to 100 (0 no effect, 100 complete control), 13 to 15 days
# [14] = 62 g ai/ha, scale 0 to 100 (0 no effect, 100 complete control), 13 to 15 days
# [15] = 250 g ai/ha, scale 0 to 100, 0 is no effect, 100 is complete control
# [16] = 125 g ai/ha, 0 to 100 scale, 0 no effect, 100 complete control
# [17] = 500 g ai/ha, 0 to 100 scale (0 no effect, 100 complete control)
# [18] = preemergence, 31 g ai/ha, visual rating, scale 0 to 100 (0 no effect, 100 complete control), 13 to 15 days
# [19] = 500 g ai/ha, visual injury after approx. 10 days, 0 to 100 scale (0 no effect, 100 complete control)
smiles,measurement,setting,value
CCc1cc(C(=O)NCC(F)(F)F)nn1Cc1ccnc(Br)c1 [Compound 224],"Plant response rating, Ragweed",ragweed; [7],85
same,Ragweed plant response rating,ragweed; [8],85
same,"Plant response rating, Ragweed",ragweed; [9],95
same,Ragweed plant response rating,ragweed; [10],100
same,"Plant response rating (scale of 0 to 100 where 0 is no effect and 100 is complete control), Corn",corn,5
same,Corn plant response rating,corn,5
same,"Plant response rating, Corn",corn; [11],10
same,"Plant response rating, Corn",corn; [12],10
same,"Plant response rating, Oilseed Rape",oilseed rape; [7],80
same,Oilseed Rape plant response rating,oilseed rape; [8],90
same,"Plant response rating, Oilseed Rape",oilseed rape; [9],95
same,Oilseed Rape plant response rating,oilseed rape; [10],95
same,"Plant response rating (scale of 0 to 100 where 0 is no effect and 100 is complete control), Lambsquarters",lambsquarters,35
same,Lambsquarters plant response rating,lambsquarters,40
same,"Plant response rating, Lambsquarters",lambsquarters; [11],60
same,"Plant response rating, Lambsquarters",lambsquarters; [12],45
same,"Plant response rating, Foxtail, Giant","foxtail, giant; [7]",95
same,"Foxtail, Giant plant response rating","foxtail, giant; [8]",100
same,"Plant response rating, Foxtail, Giant","foxtail, giant; [9]",100
same,"Foxtail, Giant plant response rating","foxtail, giant; [10]",100
same,"Plant response rating, Wheat",wheat; [7],0
same,Wheat plant response rating,wheat; [8],0
same,"Plant response rating, Wheat",wheat; [9],10
same,Wheat plant response rating,wheat; [10],60
same,"Plant response rating, Waterhemp",waterhemp,45
same,Waterhemp plant response rating,waterhemp,50
same,Blackgrass plant response rating,blackgrass; [13],80
same,Blackgrass plant response rating,blackgrass; [14],100
same,"Plant response rating, Blackgrass",blackgrass; 13 to 15 days,80
same,Blackgrass plant response rating,blackgrass; [15],90
same,Pigweed plant response rating,pigweed [1]; [16],100
same,Pigweed plant response rating,pigweed [1]; [17],100
same,"Plant response rating, Johnsongrass",johnsongrass [2]; [7],15
same,Johnsongrass plant response rating,johnsongrass [2]; [8],50
same,"Plant response rating, Johnsongrass",johnsongrass [2]; [9],60
same,Johnsongrass plant response rating,johnsongrass [2]; [10],98
same,"Plant response rating (scale of 0 to 100 where 0 is no effect and 100 is complete control), Johnsongrass",johnsongrass [3],20
same,Johnsongrass plant response rating,johnsongrass [3],5
same,"Plant response rating, Johnsongrass",johnsongrass [3]; [11],5
same,"Plant response rating, Johnsongrass",johnsongrass [3]; [12],5
same,Velvetleaf plant response rating (0 to 100 scale),velvetleaf [4],100
same,"Plant response rating, Soybean",soybean; [7],10
same,Soybean plant response rating,soybean; [8],40
same,"Plant response rating, Soybean",soybean; [9],65
same,Soybean plant response rating,soybean; [10],90
same,"Barnyardgrass plant response rating (0 to 100 scale, 0 is no effect, 100 is complete control)",barnyardgrass,90
same,Barnyardgrass plant response rating,barnyardgrass,100
same,Pigweed plant response rating (0 to 100 scale),pigweed [5],100
same,Velvetleaf plant response rating,velvetleaf [6]; [16],60
same,Velvetleaf plant response rating,velvetleaf [6]; [17],100
CCCc1cc(C(=O)NC(C)C)nn1Cc1cc(C(F)(F)F)nn1C [Compound 201],Ragweed plant response rating,ragweed; [18],80
same,Ragweed plant response rating,ragweed; [8],85
same,"Plant response rating, Ragweed",ragweed; [9],95
same,Ragweed plant response rating,ragweed; [10],98
same,"Plant response rating (scale of 0 to 100 where 0 is no effect and 100 is complete control), Corn",corn,10
same,Corn plant response rating,corn,10
same,"Plant response rating, Corn",corn; [11],60
same,"Plant response rating, Corn",corn; [12],15
same,Oilseed Rape plant response rating,oilseed rape; [18],100
same,Oilseed Rape plant response rating,oilseed rape; [8],100
same,"Plant response rating, Oilseed Rape",oilseed rape; [9],100
same,Oilseed Rape plant response rating,oilseed rape; [10],95
same,"Plant response rating (scale of 0 to 100 where 0 is no effect and 100 is complete control), Lambsquarters",lambsquarters,65
same,Lambsquarters plant response rating,lambsquarters,80
same,"Plant response rating, Lambsquarters",lambsquarters; [11],95
same,"Plant response rating, Lambsquarters",lambsquarters; [12],90
same,"Foxtail, Giant plant response rating","foxtail, giant; [18]",100
same,"Foxtail, Giant plant response rating","foxtail, giant; [8]",95
same,"Plant response rating, Foxtail, Giant","foxtail, giant; [9]",100
same,"Foxtail, Giant plant response rating","foxtail, giant; [10]",100
same,Wheat plant response rating,wheat; [18],80
same,Wheat plant response rating,wheat; [8],85
same,"Plant response rating, Wheat",wheat; [9],90
same,Wheat plant response rating,wheat; [10],90
same,"Plant response rating, Waterhemp",waterhemp,85
same,Waterhemp plant response rating,waterhemp,70
same,Blackgrass plant response rating,blackgrass; [13],85
same,Blackgrass plant response rating,blackgrass; [14],90
same,"Plant response rating, Blackgrass",blackgrass; 13 to 15 days,90
same,Blackgrass plant response rating,blackgrass; [15],90
same,Pigweed plant response rating,pigweed [1]; [16],100
same,Pigweed plant response rating,pigweed [1]; [17],100
same,Johnsongrass plant response rating,johnsongrass [2]; [18],85
same,Johnsongrass plant response rating,johnsongrass [2]; [8],85
same,"Plant response rating, Johnsongrass",johnsongrass [2]; [9],100
same,Johnsongrass plant response rating,johnsongrass [2]; [10],100
same,"Plant response rating (scale of 0 to 100 where 0 is no effect and 100 is complete control), Johnsongrass",johnsongrass [3],5
same,Johnsongrass plant response rating,johnsongrass [3],5
same,"Plant response rating, Johnsongrass",johnsongrass [3]; [11],85
same,"Plant response rating, Johnsongrass",johnsongrass [3]; [12],30
same,Velvetleaf plant response rating (0 to 100 scale),velvetleaf [4],100
same,Velvetleaf plant response rating,velvetleaf [4]; [19],100
same,Soybean plant response rating,soybean; [18],70
same,Soybean plant response rating,soybean; [8],85
same,"Plant response rating, Soybean",soybean; [9],95
same,Soybean plant response rating,soybean; [10],98
same,"Barnyardgrass plant response rating (0 to 100 scale, 0 is no effect, 100 is complete control)",barnyardgrass,100
same,Barnyardgrass plant response rating,barnyardgrass,100
same,Pigweed plant response rating (0 to 100 scale),pigweed [5],100
same,Pigweed plant response rating,pigweed [5]; [19],100
same,Velvetleaf plant response rating,velvetleaf [6]; [16],70
same,Velvetleaf plant response rating,velvetleaf [6]; [17],100

# — US20150105252A1, “SUBSTITUTED PYRAZOLES AS HERBICIDES” (E I DU PONT DE NEMOURS AND COMPANY, priority 2013, published 2015)
